“And” between values parts separate entries of the source, which are not always exact repeats. Equal values may be shown once. Read-outs that look alike come from different tables or passages of the source.
Assays:
[1] = Mouse pharmacokinetics, IV and oral administration; format: in vivo; conditions: male C57BL/6 mice; for concentration at 0.017 h / concentration at 0.033 h / concentration at 0.083 h / concentration at 0.25 h / concentration at 0.5 h / concentration at 1 h / concentration at 2 h / concentration at 4 h / concentration at 7.5 h / concentration at 24 h: male, C57BL/6, mouse
Procedure: PF670462 (2HCl.0.4 mol. eq. isopropanol) and ZH3-138 (unionised) were administered to male C57BL/6 mice by IV (3 mg/kg) or orally (10 mg/kg). IV administration was achieved by bolus injection into the tail vein of mice using 1 mL syringe with 25G×1″ needle at a volume of 3 mL/kg. Oral administration was achieved by gavage needle at a volume of 3 mL/kg.
Intravenous (IV) and oral formulations were prepared using the same method. On the day of dosing, each of the solid compound was dissolved in DMSO to which an aqueous solution containing 10% Captisol was added. Hydrochloric acid (1 M) was used to modify pH for the formulation of ZH3-138 with the purpose of solubilising the compound (see Section B for the final pH of each formulation). The formulations of each compound were thoroughly vortexed, producing colourless solutions for all three compounds.
The systemic exposure of PF670462 and ZH3-138 was studied in non-fasted male C57BL/6 mice weighing 19.8-26.8 g. Mice had access to food and water ad libitum throughout the pre- and post-dose sampling period.
Compounds were dosed to mice by bolus injection into the lateral tail vein (3 mL/kg) for IV administration and by gavage (3 mL/kg) for oral administration. Following IV and oral administration, blood samples were collected up to 24 h (n=3 mice per time point) with a maximum of three samples from each mouse. Samples were collected via submandibular bleed (approximately 120 μL; conscious sampling). No urine samples were collected as mice were housed in bedded cages.
Blood was collected into polypropylene Eppendorf tubes containing heparin as anticoagulant and stabilisation cocktail (containing Complete® (a protease inhibitor cocktail) and potassium fluoride) to minimise the potential for ex vivo compound degradation in blood/plasma samples.
Once collected, blood samples were centrifuged immediately, supernatant plasma was removed, and stored at −80° C. until analysis by LC-MS.
Plasma samples were quantified against calibration standards prepared by spiking blank mouse plasma (50 μL) with solution standards (10 μL) obtained by diluting a stock solution of test compound (1 mg/mL in DMSO) with 50% acetonitrile in water. Diazepam (10 μL of 5 μg/mL in 50% acetonitrile/water) was added to all plasma calibration standards and samples as an internal standard (IS). The extraction of the test compound and IS from plasma was conducted using protein precipitation with acetonitrile. Protein precipitation was carried out by the addition of acetonitrile followed by vortexing and centrifugation (10,000 rpm) for 3 minutes to obtain supernatant for analysis using the LC-MS conditions described in Table 7.

[2] = In vitro metabolic stability, human liver microsomes; format: in vitro ADME
Procedure: Human Microsomal Stability of Compounds of the Invention
In Vitro Metabolic Stability
Incubation: The metabolic stability assay was performed by incubating each test compound in human liver microsomes at 37° C. and a protein concentration of 0.4 mg/mL. The metabolic reaction was initiated by the addition of an NADPH-regenerating system and quenched at various time points over a 60 minute incubation period by the addition of acetonitrile containing diazepam as internal standard. Control samples (containing no NADPH) were included (and quenched at 2, 30 and 60 minutes) to monitor for potential degradation in the absence of cofactor. The human liver microsomes used in this experiment were supplied by XenoTech, lot #1410230. Microsomal incubations were performed at a substrate concentration of 1 μM. Data analysis: Species scaling factors from Ring et al. (2011) JPharmSci, 100:4090-4110 were used to convert the in vitro CLint (μL/min/mg) to an in vivo CLint(mL/min/kg). Hepatic blood clearance and the corresponding hepatic extraction ratio (EH) were calculated using the well stirred model of hepatic extraction in each species, according to the “in vitro T1/2” approach described in Obach (1999) DrugMetab. Dispos. 27:1350-1359. The EH was then used to classify compounds as low(<0.3), intermediate (0.3-0.7), high (0.7-0.95) or very high (>0.95) extraction compounds. Predicted in vivo clearance values have not been corrected for microsomal or plasma protein binding. Species scaling calculations are based on two assumptions: 1) NADPH-dependent oxidative metabolism predominates over other metabolic routes (i.e. direct conjugative metabolism, reduction, hydrolysis, etc.), and; 2) rates of metabolism and enzyme activities in vitro are truly reflective of those that exist in vivo. If significant non-NADPH-mediated degradation is observed in microsome control samples, then assumption (1) is invalid and predicted clearance parameters are therefore not reported.

Compound: Nc1nccc(-c2c(-c3ccc(F)cc3)ncn2C2CCC(F)(F)CC2)n1 [ZH3-138, 4-(1-(4,4-Difluorocyclohexyl)-4-(4-fluorophenyl)-1H-imidazol-5-yl)pyrimidin-2-amine]
- apparent blood clearance [1]: low
- apparent blood volume of distribution [1]: moderate
- time post-dose for which plasma concentration was measurable (above LLQ) ([1]; 24 h sampling period): ≥ 24 h
- Plasma Concentration, Individual ([1]; IV 2.69 mg/kg, 0.017 h, 2.69 mg/kg): 11.4 µM and 9.81 µM
- Plasma Concentration, Individual ([1]; IV 2.69 mg/kg, 0.033 h, 2.69 mg/kg): 6.30 µM and 9.37 µM
- Plasma Concentration, Individual ([1]; IV 2.69 mg/kg, 0.083 h (actual sampling time was 0.10 h), 2.69 mg/kg): 5.94 µM and 5.95 µM
- Plasma Concentration, Individual ([1]; IV 2.69 mg/kg, 0.25 h, 2.69 mg/kg): 4.68 µM and 4.21 µM
- Plasma Concentration, Individual ([1]; IV 2.69 mg/kg, 0.5 h, 2.69 mg/kg): 4.12 µM and 4.28 µM
- Plasma Concentration, Individual ([1]; IV 2.69 mg/kg, 1.0 h, 2.69 mg/kg): 2.73 µM and 3.70 µM
- Plasma Concentration, Individual ([1]; IV 2.69 mg/kg, 2.0 h, 2.69 mg/kg): 5.24 µM and 4.00 µM
- Plasma Concentration, Individual ([1]; IV 2.69 mg/kg, 4.0 h, 2.69 mg/kg): 3.53 µM and 3.63 µM
- Plasma Concentration, Individual ([1]; IV 2.69 mg/kg, 7.5 h, 2.69 mg/kg): 1.77 µM and 1.54 µM
- Plasma Concentration, Individual ([1]; IV 2.69 mg/kg, 24 h, 2.69 mg/kg): 0.0287 µM and 0.0211 µM
- Plasma Concentration, Individual ([1]; oral 8.96 mg/kg, 0.25 h, 8.96 mg/kg): 14.7 µM and 8.96 µM
- Plasma Concentration, Individual ([1]; oral 8.96 mg/kg, 0.50 h, 8.96 mg/kg): 11.3 µM and 22.5 µM
- Plasma Concentration, Individual ([1]; oral 8.96 mg/kg, 1.0 h, 8.96 mg/kg): 16.2 µM and 14.4 µM
- Plasma Concentration, Individual ([1]; oral 8.96 mg/kg, 2.0 h, 8.96 mg/kg): 17.4 µM and 17.7 µM
- Plasma Concentration, Individual ([1]; oral 8.96 mg/kg, 4.0 h, 8.96 mg/kg): 10.2 µM and 15.1 µM
- Plasma Concentration, Individual ([1]; oral 8.96 mg/kg, 7.5 h, 8.96 mg/kg): 5.97 µM and 8.71 µM
- Plasma Concentration, Individual ([1]; oral 8.96 mg/kg, 24 h, 8.96 mg/kg): 0.0400 µM and 0.0758 µM
- time of apparent secondary peak in concentration-time profile ([1]; post-dose): 2 h
- concentration at 0.017 h ([1]; plasma, iv, 2.69 mg/kg, IV 2.69 mg/kg, 0.017 h, read-out: Plasma Concentration, Individual): 11.1 µM
- concentration at 0.017 h ([1]; plasma, iv, 2.69 mg/kg, IV 2.69 mg/kg, 0.017 h, read-out: Plasma Concentration, Mean): 10.8 µM
- concentration at 0.033 h ([1]; plasma, iv, 2.69 mg/kg, IV 2.69 mg/kg, 0.033 h, read-out: Plasma Concentration, Individual): 7.86 µM
- concentration at 0.033 h ([1]; plasma, iv, 2.69 mg/kg, IV 2.69 mg/kg, 0.033 h, read-out: Plasma Concentration, Mean): 7.84 µM
- concentration at 0.083 h ([1]; plasma, iv, 2.69 mg/kg, IV 2.69 mg/kg, 0.083 h (actual sampling time was 0.10 h), read-out: Plasma Concentration, Individual): 5.29 µM
- concentration at 0.083 h ([1]; plasma, iv, 2.69 mg/kg, IV 2.69 mg/kg, 0.083 h (actual sampling time was 0.10 h), read-out: Plasma Concentration, Mean): 5.73 µM
- concentration at 0.25 h ([1]; plasma, iv, 2.69 mg/kg, IV 2.69 mg/kg, 0.25 h, read-out: Plasma Concentration, Individual): 5.04 µM
- concentration at 0.25 h ([1]; plasma, iv, 2.69 mg/kg, IV 2.69 mg/kg, 0.25 h, read-out: Plasma Concentration, Mean): 4.65 µM
- concentration at 0.5 h ([1]; plasma, iv, 2.69 mg/kg, IV 2.69 mg/kg, 0.5 h, read-out: Plasma Concentration, Individual): 4.01 µM
- concentration at 0.5 h ([1]; plasma, iv, 2.69 mg/kg, IV 2.69 mg/kg, 0.5 h, read-out: Plasma Concentration, Mean): 4.14 µM
- concentration at 1 h ([1]; plasma, iv, 2.69 mg/kg, IV 2.69 mg/kg, 1.0 h, read-out: Plasma Concentration, Individual): 2.93 µM
- concentration at 1 h ([1]; plasma, iv, 2.69 mg/kg, IV 2.69 mg/kg, 1.0 h, read-out: Plasma Concentration, Mean): 3.12 µM
- concentration at 2 h ([1]; plasma, iv, 2.69 mg/kg, IV 2.69 mg/kg, 2.0 h, read-out: Plasma Concentration, Individual): 4.42 µM
- concentration at 2 h ([1]; plasma, iv, 2.69 mg/kg, IV 2.69 mg/kg, 2.0 h, read-out: Plasma Concentration, Mean): 4.55 µM
- concentration at 4 h ([1]; plasma, iv, 2.69 mg/kg, IV 2.69 mg/kg, 4.0 h, read-out: Plasma Concentration, Individual): 3.74 µM
- concentration at 4 h ([1]; plasma, iv, 2.69 mg/kg, IV 2.69 mg/kg, 4.0 h, read-out: Plasma Concentration, Mean): 3.63 µM
- concentration at 7.5 h ([1]; plasma, iv, 2.69 mg/kg, IV 2.69 mg/kg, 7.5 h, read-out: Plasma Concentration, Individual): 1.84 µM
- concentration at 7.5 h ([1]; plasma, iv, 2.69 mg/kg, IV 2.69 mg/kg, 7.5 h, read-out: Plasma Concentration, Mean): 1.72 µM
- concentration at 24 h ([1]; plasma, iv, 2.69 mg/kg, IV 2.69 mg/kg, 24 h, read-out: Plasma Concentration, Individual): 0.0237 µM
- concentration at 24 h ([1]; plasma, iv, 2.69 mg/kg, IV 2.69 mg/kg, 24 h, read-out: Plasma Concentration, Mean): 0.0245 µM
- concentration at 0.25 h ([1]; plasma, po, 8.96 mg/kg, oral 8.96 mg/kg, 0.25 h, read-out: Plasma Concentration, Individual): 12.1 µM
- concentration at 0.25 h ([1]; plasma, po, 8.96 mg/kg, oral 8.96 mg/kg, 0.25 h, read-out: Plasma Concentration, Mean): 11.9 µM
- concentration at 0.5 h ([1]; plasma, po, 8.96 mg/kg, oral 8.96 mg/kg, 0.50 h, read-out: Plasma Concentration, Individual): 13.7 µM
- concentration at 0.5 h ([1]; plasma, po, 8.96 mg/kg, oral 8.96 mg/kg, 0.50 h, read-out: Plasma Concentration, Mean): 15.8 µM
- concentration at 1 h ([1]; plasma, po, 8.96 mg/kg, oral 8.96 mg/kg, 1.0 h, read-out: Plasma Concentration, Individual): 13.9 µM
- concentration at 1 h ([1]; plasma, po, 8.96 mg/kg, oral 8.96 mg/kg, 1.0 h, read-out: Plasma Concentration, Mean): 14.8 µM
- concentration at 2 h ([1]; plasma, po, 8.96 mg/kg, oral 8.96 mg/kg, 2.0 h, read-out: Plasma Concentration, Individual): 13.8 µM
- concentration at 2 h ([1]; plasma, po, 8.96 mg/kg, oral 8.96 mg/kg, 2.0 h, read-out: Plasma Concentration, Mean): 16.3 µM
- concentration at 4 h ([1]; plasma, po, 8.96 mg/kg, oral 8.96 mg/kg, 4.0 h, read-out: Plasma Concentration, Individual): 11 µM
- concentration at 4 h ([1]; plasma, po, 8.96 mg/kg, oral 8.96 mg/kg, 4.0 h, read-out: Plasma Concentration, Mean): 12.1 µM
- concentration at 7.5 h ([1]; plasma, po, 8.96 mg/kg, oral 8.96 mg/kg, 7.5 h, read-out: Plasma Concentration, Individual): 6.59 µM
- concentration at 7.5 h ([1]; plasma, po, 8.96 mg/kg, oral 8.96 mg/kg, 7.5 h, read-out: Plasma Concentration, Mean): 7.09 µM
- concentration at 24 h ([1]; plasma, po, 8.96 mg/kg, oral 8.96 mg/kg, 24 h, read-out: Plasma Concentration, Individual): 0.0513 µM
- concentration at 24 h ([1]; plasma, po, 8.96 mg/kg, oral 8.96 mg/kg, 24 h, read-out: Plasma Concentration, Mean): 0.0557 µM
- half-life ([1]; mouse, plasma, read-out: apparent half-life (converted)): ~3 h
- Predicted EH (hepatic extraction ratio) ([2]; human liver microsomes): <0.22
- microsomal CLint at 1 μM ([2]; human liver microsomes, 1 μM): < 7 µL/min/mg
- half-life at 1 μM ([2]; human liver microsomes, 1 μM, 0.4 mg/mL protein, 37° C.): > 4.25 h
- Predicted CLblood ([2]; scaled from human liver microsomes, well stirred model): <5 mL/min/kg
- CLint scaled at 1 μM ([2]; scaled from human liver microsomes, read-out: Predicted CLint, in vivo): < 6 mL/min/kg
